This note sets out measurements from ChEMBL document CHEMBL4613219, “Formation of 5α-dihydrotestosterone from 5α-androstane-3α,17β-diol in prostate cancer LAPC-4 cells - Identifying inhibitors of non-classical pathways producing the most potent androgen” (Bioorg Med Chem Lett, 2020).

For orientation: inhibition means how much of the control response was suppressed. As usually defined, the IC50 is the concentration that inhibits the measured activity by half.

Common to all, as to conditions: LAPC4, 24 h
Test [1] relates to LAPC4. Put plainly: Inhibition of 3-alpha-diol conversion to 5-alpha-dihydrotestosterone in human LAPC4 cells assessed in 100000 cells at 10 uM measured after 24 hrs using [14C]-3-alpha-diol/[14C]-3-beta-diol (9:1) as non-radiolabeled/radiolabeled 20:1 mixture by TLC analysis relative to control. It counts as functional.
Test [2] relates to LAPC4. Put plainly: Inhibition of 3-alpha-diol conversion to 5-alpha-dihydrotestosterone in human LAPC4 cells assessed in 100000 cells at 3 uM measured after 24 hrs using [14C]-3-alpha-diol/[14C]-3-beta-diol (9:1) as non-radiolabeled/radiolabeled 20:1 mixture by TLC analysis relative to control. It counts as functional.
Test [3] has as its system LAPC4. Put plainly: Inhibition of 3-alpha-diol conversion to 5-alpha-dihydrotestosterone in human LAPC4 cells assessed in 200000 cells at 3 uM measured after 24 hrs using [14C]-3-alpha-diol/[14C]-3-beta-diol (9:1) as non-radiolabeled/radiolabeled 20:1 mixture by TLC analysis relative to control. It counts as functional.
Test [4] relates to LAPC4. Put plainly: Inhibition of 3-alpha-diol conversion to 5-alpha-dihydrotestosterone in human LAPC4 cells assessed in 200000 cells at 10 uM measured after 24 hrs using [14C]-3-alpha-diol/[14C]-3-beta-diol (9:1) as non-radiolabeled/radiolabeled 20:1 mixture by TLC analysis relative to control. It counts as functional.
Test [5] has as its system LAPC4. Put plainly: Inhibition of 3-alpha-diol conversion to 5-alpha-dihydrotestosterone in human LAPC4 cells assessed in 200000 cells measured after 24 hrs using [14C]-3-alpha-diol/[14C]-3-beta-diol (9:1) as non-radiolabeled/radiolabeled 20:1 mixture by TLC analysis. Format: functional, cell-based.

On to `COc1cccc(CN2CCN(C[C@@]3(O)CC[C@@]4(C)[C@@H](CC[C@@H]5[C@@H]4CC[C@@]4(C)[C@H]5CCC4(F)F)C3)CC2)c1`, for which the inhibition at 10 µM in the test with LAPC4 [1] was determined as 49.7%. The inhibition at 3 µM with LAPC4 [2] came out at 33.7%.

Regarding `C[C@]12CC[C@](O)(CN3CCN(C(=S)Nc4ccc5ccccc5c4)CC3)C[C@@H]1CC[C@@H]1[C@@H]2CC[C@]2(C)C(=O)CC[C@@H]12`, the inhibition at 3 µM in the test with LAPC4 [3] was 41.1%. Moreover, in the test on LAPC4 [4], the inhibition at 10 µM was found to be 42.1%.

As to `CCN(C)S(=O)(=O)N1CCN(C[C@@]2(O)CC[C@@]3(C)[C@@H](CC[C@@H]4[C@@H]3CC[C@]3(C)C(=O)CC[C@@H]43)C2)CC1`, the inhibition at 10 µM in the test on LAPC4 [1] turned out to be 3.3%. For the same molecule, the inhibition at 3 µM with LAPC4 [2] is 0%.

For `C[C@]12CC[C@](O)(CN3CCN(C(=O)c4ccc5ccccc5c4)CC3)C[C@@H]1CC[C@@H]1[C@@H]2CC[C@]2(C)C(=O)CC[C@@H]12`, the IC50 in the test with LAPC4 [5] came out at 6.1 µM. For the same molecule, the inhibition at 3 µM in the test on LAPC4 [3] came to 43.6%. Also, the inhibition at 10 µM in the test on LAPC4 [4] amounted to 65.3%.

Consider `C#C[C@]1(O)CC[C@H]2[C@@H]3CC[C@H]4C[C@@](O)(CN5CCN(Cc6cccc(OC)c6)CC5)CC[C@]4(C)[C@H]3CC[C@@]21C`, for which, in the test with LAPC4 [1], the inhibition at 10 µM came out at 44.2%. For the same molecule, the inhibition at 3 µM in the test on LAPC4 [2] turned out to be 35.4%.

As to `COc1cc(CN2CCN(C[C@@]3(O)CC[C@@]4(C)[C@@H](CC[C@@H]5[C@@H]4CC[C@]4(C)C(=O)CC[C@@H]54)C3)CC2)cc(C(F)(F)F)c1`, the IC50 in the test with LAPC4 [5] is 3.7 µM. Also, the inhibition at 3 µM with LAPC4 [3] is 46.8%. Besides, the inhibition at 10 µM with LAPC4 [4] amounted to 62.9%.

`C[C@]12CC[C@](O)(CN3CCN(Cc4ccc5ccccc5c4)CC3)C[C@@H]1CC[C@@H]1[C@@H]2CC[C@]2(C)C(=O)CC[C@@H]12`: in the test with LAPC4 [3], the inhibition at 3 µM was found to be 30.1%. Moreover, the inhibition at 10 µM with LAPC4 [4] turned out to be 51.4%.

In the case of `C[C@]12CC[C@](O)(CN3CCN(Cc4ccc5ccccc5n4)CC3)C[C@@H]1CC[C@@H]1[C@@H]2CC[C@]2(C)C(=O)CC[C@@H]12`, in the test with LAPC4 [1], the inhibition at 10 µM stood at 27.4%. Also, in the test on LAPC4 [2], the inhibition at 3 µM turned out to be 8.4%.

`COc1cccc(CN2CCN(C[C@@]3(O)CC[C@@]4(C)[C@@H](CC[C@@H]5[C@@H]4CC[C@]4(C)C(=O)CC[C@@H]54)C3)CC2)c1`: the inhibition at 10 µM in the test with LAPC4 [1] came to 42.5%. For the same molecule, the inhibition at 3 µM with LAPC4 [2] turned out to be 21.5%.

In the case of `COc1cccc(CN2CCN(C[C@@]3(O)CC[C@@]4(C)[C@@H](CC[C@@H]5[C@@H]4CC[C@@]4(C)[C@H]5CC[C@]4(C)O)C3)CC2)c1`, in the test with LAPC4 [1], the inhibition at 10 µM amounted to 36.5%. Besides, the inhibition at 3 µM in the test on LAPC4 [2] turned out to be 17.8%.

As to `COc1cc(N2CCN(C[C@@]3(O)CC[C@@]4(C)[C@@H](CC[C@@H]5[C@@H]4CC[C@]4(C)C(=O)CC[C@@H]54)C3)CC2)ccc1F`, the inhibition at 3 µM in the test on LAPC4 [3] stood at 21.4%. Also, in the test on LAPC4 [4], the inhibition at 10 µM was found to be 37.2%.

For `CN(C)S(=O)(=O)c1ccc(NC(=S)N2CCN(C[C@@]3(O)CC[C@@]4(C)[C@@H](CC[C@@H]5[C@@H]4CC[C@]4(C)C(=O)CC[C@@H]54)C3)CC2)cc1`, the inhibition at 10 µM in the test on LAPC4 [1] is 31.7%. Moreover, the inhibition at 3 µM in the test on LAPC4 [2] turned out to be 14.3%.

Regarding `C[C@]12CC[C@](O)(CN3CCN(S(=O)(=O)c4ccc5ccccc5c4)CC3)C[C@@H]1CC[C@@H]1[C@@H]2CC[C@]2(C)C(=O)CC[C@@H]12`, the inhibition at 3 µM in the test with LAPC4 [3] was 0.1%. Moreover, in the test with LAPC4 [4], the inhibition at 10 µM came out at 19.1%.

As to `C#C[C@]1(O)CC[C@H]2[C@@H]3CC[C@H]4C[C@@](O)(CN5CCN(Cc6cccc(OC)c6C(F)(F)F)CC5)CC[C@]4(C)[C@H]3CC[C@@]21C`, the IC50 in the test with LAPC4 [5] was 14.1 µM. For the same molecule, in the test with LAPC4 [3], the inhibition at 3 µM was 44.3%. Also, in the test with LAPC4 [4], the inhibition at 10 µM amounted to 56.2%.

For `C[C@]12CC[C@@H](O)C[C@@H]1CC[C@@H]1[C@@H]2CC[C@]2(C)C(=O)CC[C@@H]12` [ANDROSTERONE], the inhibition at 3 µM with LAPC4 [3] was found to be 85.7%. For the same molecule, the inhibition at 10 µM with LAPC4 [4] amounted to 83.8%.

`C[C@]12CCC(O)C[C@@H]1CC[C@@H]1[C@@H]2CC[C@]2(C)[C@@H](O)CC[C@@H]12` (stereo not given in full): the inhibition at 10 µM with LAPC4 [1] was found to be 79.3%; in the test with LAPC4 [4], 87%. Also, the IC50 in the test on LAPC4 [5] was determined as 0.56 µM. Further, the inhibition at 3 µM with LAPC4 [2] was determined as 46.9%; with LAPC4 [3] it was 73.6%.

As for `COc1cccc(CN2CCN(C[C@@]3(O)CC[C@@]4(C)[C@@H](CC[C@@H]5[C@@H]4CC[C@]4(C)[C@H](O)CC[C@@H]54)C3)CC2)c1`, in the test on LAPC4 [1], the inhibition at 10 µM amounted to 27.6%. The inhibition at 3 µM in the test with LAPC4 [2] worked out at 9.5%.

With `COc1cccc(CN2CCN(C[C@@]3(O)CC[C@@]4(C)[C@@H](CC[C@@H]5[C@@H]4CC[C@]4(C)[C@@H](O)CC[C@@H]54)C3)CC2)c1`, the inhibition at 10 µM in the test with LAPC4 [1] worked out at 28.3%. Also, the inhibition at 3 µM with LAPC4 [2] stood at 21.2%.

For the molecule `COc1cc(C)ccc1CN1CCN(C[C@@]2(O)CC[C@@]3(C)[C@@H](CC[C@@H]4[C@@H]3CC[C@]3(C)C(=O)CC[C@@H]43)C2)CC1`, the inhibition at 10 µM with LAPC4 [1] worked out at 51.2%. The inhibition at 3 µM with LAPC4 [2] was 12.2%.

Turning to `C[C@]12CC[C@](O)(CN3CCN(C(=S)NCc4cccc(C(F)(F)F)c4)CC3)C[C@@H]1CC[C@@H]1[C@@H]2CC[C@]2(C)C(=O)CC[C@@H]12`, the inhibition at 10 µM in the test on LAPC4 [1] was 49.7%; with LAPC4 [4], 57.7%. Also, the IC50 with LAPC4 [5] turned out to be 3.6 µM. Moreover, the inhibition at 3 µM with LAPC4 [2] stood at 27%; in the test with LAPC4 [3], 47.7%.

Regarding `CC(=O)c1cccc(CN2CCN(C[C@@]3(O)CC[C@@]4(C)[C@@H](CC[C@@H]5[C@@H]4CC[C@]4(C)C(=O)CC[C@@H]54)C3)CC2)c1`, the inhibition at 10 µM in the test with LAPC4 [1] is 15.5%. For the same molecule, the inhibition at 3 µM with LAPC4 [2] was 3.7%.

As to `COc1cc(CN2CCN(C[C@@]3(O)CC[C@@]4(C)[C@@H](CC[C@@H]5[C@@H]4CC[C@]4(C)C(=O)CC[C@@H]54)C3)CC2)ccc1C(F)(F)F`, the IC50 with LAPC4 [5] amounted to 8 µM.

`COc1cc(N2CCN(C[C@@]3(O)CC[C@@]4(C)[C@@H](CC[C@@H]5[C@@H]4CC[C@]4(C)C(=O)CC[C@@H]54)C3)CC2)ccc1C(F)(F)F`: the inhibition at 10 µM was found to be 55.6% in the test on LAPC4 [1] and 63.2% in the test on LAPC4 [4]. Further, the inhibition at 3 µM in the test with LAPC4 [2] worked out at 33.7%; in the test on LAPC4 [3] it was 37.4%.

As to `COc1cc(CN2CCN(C[C@@]3(O)CC[C@@]4(C)[C@@H](CC[C@@H]5[C@@H]4CC[C@]4(C)C(=O)CC[C@@H]54)C3)CC2)ccc1C`, the inhibition at 10 µM in the test on LAPC4 [1] turned out to be 49%. Moreover, in the test with LAPC4 [2], the inhibition at 3 µM was 22.3%.

For `COc1cccc(CN2CCN(C[C@@]3(O)CC[C@@]4(C)[C@@H](CC[C@@H]5[C@@H]4CC[C@]4(C)C(=O)C(C)(C)C[C@@H]54)C3)CC2)c1`, the inhibition at 10 µM in the test with LAPC4 [1] was determined as 21.5%. Further, the inhibition at 3 µM in the test on LAPC4 [2] turned out to be 11.8%.

For the molecule `C#C[C@]1(O)CC[C@H]2[C@@H]3CC[C@H]4C[C@@](O)(CN5CCN(Cc6ccc(C(F)(F)F)c(OC)c6)CC5)CC[C@]4(C)[C@H]3CC[C@@]21C`, the IC50 in the test on LAPC4 [5] came out at 1.2 µM. Moreover, the inhibition at 3 µM in the test on LAPC4 [3] stood at 74%. Besides, the inhibition at 10 µM in the test on LAPC4 [4] was determined as 88.8%.

Take `COc1ccc(C(F)(F)F)c(N2CCN(C[C@@]3(O)CC[C@@]4(C)[C@@H](CC[C@@H]5[C@@H]4CC[C@]4(C)C(=O)CC[C@@H]54)C3)CC2)c1`: the inhibition at 3 µM in the test on LAPC4 [3] is 27.6%. For the same molecule, the inhibition at 10 µM with LAPC4 [4] worked out at 48%.
